Assays:
[1] = target: Voltage-dependent L-type calcium channel subunit alpha-1C (Rattus norvegicus, UniProt P22002); type: functional
[2] = target: T1, Muscarinic acetylcholine receptor M1 (Homo sapiens, UniProt P11229); type: functional
T1 sequence (P11229 whole entry): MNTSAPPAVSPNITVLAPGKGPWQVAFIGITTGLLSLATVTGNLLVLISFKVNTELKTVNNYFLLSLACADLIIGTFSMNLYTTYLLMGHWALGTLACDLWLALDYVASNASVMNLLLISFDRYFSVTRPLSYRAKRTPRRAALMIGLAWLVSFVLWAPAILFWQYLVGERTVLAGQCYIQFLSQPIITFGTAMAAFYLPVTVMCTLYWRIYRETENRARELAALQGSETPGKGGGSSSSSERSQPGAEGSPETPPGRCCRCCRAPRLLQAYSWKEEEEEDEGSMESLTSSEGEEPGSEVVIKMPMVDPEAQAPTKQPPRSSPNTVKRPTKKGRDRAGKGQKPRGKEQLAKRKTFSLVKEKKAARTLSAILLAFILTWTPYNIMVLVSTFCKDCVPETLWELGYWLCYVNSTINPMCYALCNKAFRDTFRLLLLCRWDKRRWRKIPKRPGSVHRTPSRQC

[3] = target: Muscarinic acetylcholine receptor M3 (Homo sapiens, UniProt P20309)
Histamine H1 receptor = Histamine H1 receptor (Homo sapiens, UniProt P35367)
Glucocorticoid receptor = target: T2, Glucocorticoid receptor (Homo sapiens, UniProt P04150)
T2 sequence (P04150 whole entry): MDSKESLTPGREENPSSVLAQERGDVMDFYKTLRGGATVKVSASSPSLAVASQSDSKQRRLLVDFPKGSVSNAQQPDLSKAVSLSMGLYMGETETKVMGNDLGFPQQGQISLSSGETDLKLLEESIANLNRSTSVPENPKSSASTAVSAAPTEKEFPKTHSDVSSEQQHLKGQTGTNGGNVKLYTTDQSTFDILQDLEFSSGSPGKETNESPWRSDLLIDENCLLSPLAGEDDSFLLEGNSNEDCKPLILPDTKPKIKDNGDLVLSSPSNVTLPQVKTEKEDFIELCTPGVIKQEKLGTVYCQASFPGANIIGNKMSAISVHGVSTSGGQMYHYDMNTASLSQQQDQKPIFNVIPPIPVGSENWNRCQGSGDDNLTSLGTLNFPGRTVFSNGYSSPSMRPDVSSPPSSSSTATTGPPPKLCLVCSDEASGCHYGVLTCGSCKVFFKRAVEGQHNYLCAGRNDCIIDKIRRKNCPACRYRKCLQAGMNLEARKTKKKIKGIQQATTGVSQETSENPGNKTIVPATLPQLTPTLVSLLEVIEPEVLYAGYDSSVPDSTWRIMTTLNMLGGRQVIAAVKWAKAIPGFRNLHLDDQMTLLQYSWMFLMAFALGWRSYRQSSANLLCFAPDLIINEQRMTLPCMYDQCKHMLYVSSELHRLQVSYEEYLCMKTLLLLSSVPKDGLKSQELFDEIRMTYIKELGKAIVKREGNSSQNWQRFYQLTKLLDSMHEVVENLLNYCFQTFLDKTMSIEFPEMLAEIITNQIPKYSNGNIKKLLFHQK

Mu-type opioid receptor = Mu-type opioid receptor (Homo sapiens, UniProt P35372); experiment: biochemical; type: functional
[4] = target: T3, Gamma-aminobutyric acid receptor subunit alpha-1/alpha-2/beta-2/gamma-2 (Homo sapiens, UniProt P14867+P18507+P47869+P47870); type: functional, cell-based
[5] = target: T3, Gamma-aminobutyric acid receptor subunit alpha-1/alpha-2/beta-2/gamma-2; type: functional, cell-based; remark: listed apart in the source
[6] = target: Beta-3 adrenergic receptor (Homo sapiens, UniProt P13945)
[7] = target: Voltage-dependent N-type calcium channel subunit alpha-1B (Rattus norvegicus, UniProt Q02294); type: functional
[8] = target: T4, Corticotropin-releasing factor receptor 1 (Homo sapiens, UniProt P34998)
T4 sequence (P34998 whole entry): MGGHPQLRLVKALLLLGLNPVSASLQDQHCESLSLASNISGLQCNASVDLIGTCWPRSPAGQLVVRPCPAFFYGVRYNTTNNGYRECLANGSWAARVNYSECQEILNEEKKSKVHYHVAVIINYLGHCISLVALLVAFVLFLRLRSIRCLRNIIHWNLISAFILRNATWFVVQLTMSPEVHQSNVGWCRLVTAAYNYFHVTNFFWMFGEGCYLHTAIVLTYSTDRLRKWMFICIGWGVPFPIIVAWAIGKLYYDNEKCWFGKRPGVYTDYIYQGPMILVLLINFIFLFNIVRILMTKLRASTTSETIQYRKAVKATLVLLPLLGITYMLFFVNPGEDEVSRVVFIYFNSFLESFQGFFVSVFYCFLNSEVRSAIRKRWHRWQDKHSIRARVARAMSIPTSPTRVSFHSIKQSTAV

[9] = target: Neurotensin receptor type 1 (Homo sapiens, UniProt P30989)
[10] = target: T5, Peroxisome proliferator-activated receptor gamma (Homo sapiens, UniProt P37231); type: functional
T5 sequence (P37231 whole entry): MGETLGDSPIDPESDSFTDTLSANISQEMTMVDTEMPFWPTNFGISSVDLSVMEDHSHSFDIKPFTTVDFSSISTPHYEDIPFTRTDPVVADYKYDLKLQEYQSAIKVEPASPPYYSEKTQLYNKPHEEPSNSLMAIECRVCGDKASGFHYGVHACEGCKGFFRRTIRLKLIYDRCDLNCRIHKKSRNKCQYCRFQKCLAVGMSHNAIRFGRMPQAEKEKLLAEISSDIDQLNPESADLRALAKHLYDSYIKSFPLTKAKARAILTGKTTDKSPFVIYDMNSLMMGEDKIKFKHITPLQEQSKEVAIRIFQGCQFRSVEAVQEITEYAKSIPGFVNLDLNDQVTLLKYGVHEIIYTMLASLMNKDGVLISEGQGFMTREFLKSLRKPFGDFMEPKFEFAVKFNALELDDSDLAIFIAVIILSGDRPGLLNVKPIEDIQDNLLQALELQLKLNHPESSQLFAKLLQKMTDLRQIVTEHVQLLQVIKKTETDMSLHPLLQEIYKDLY
Note: assay procedure not described here.

Chain of Voltage-dependent L-type calcium channel subunit alpha-1C (P22002 whole entry): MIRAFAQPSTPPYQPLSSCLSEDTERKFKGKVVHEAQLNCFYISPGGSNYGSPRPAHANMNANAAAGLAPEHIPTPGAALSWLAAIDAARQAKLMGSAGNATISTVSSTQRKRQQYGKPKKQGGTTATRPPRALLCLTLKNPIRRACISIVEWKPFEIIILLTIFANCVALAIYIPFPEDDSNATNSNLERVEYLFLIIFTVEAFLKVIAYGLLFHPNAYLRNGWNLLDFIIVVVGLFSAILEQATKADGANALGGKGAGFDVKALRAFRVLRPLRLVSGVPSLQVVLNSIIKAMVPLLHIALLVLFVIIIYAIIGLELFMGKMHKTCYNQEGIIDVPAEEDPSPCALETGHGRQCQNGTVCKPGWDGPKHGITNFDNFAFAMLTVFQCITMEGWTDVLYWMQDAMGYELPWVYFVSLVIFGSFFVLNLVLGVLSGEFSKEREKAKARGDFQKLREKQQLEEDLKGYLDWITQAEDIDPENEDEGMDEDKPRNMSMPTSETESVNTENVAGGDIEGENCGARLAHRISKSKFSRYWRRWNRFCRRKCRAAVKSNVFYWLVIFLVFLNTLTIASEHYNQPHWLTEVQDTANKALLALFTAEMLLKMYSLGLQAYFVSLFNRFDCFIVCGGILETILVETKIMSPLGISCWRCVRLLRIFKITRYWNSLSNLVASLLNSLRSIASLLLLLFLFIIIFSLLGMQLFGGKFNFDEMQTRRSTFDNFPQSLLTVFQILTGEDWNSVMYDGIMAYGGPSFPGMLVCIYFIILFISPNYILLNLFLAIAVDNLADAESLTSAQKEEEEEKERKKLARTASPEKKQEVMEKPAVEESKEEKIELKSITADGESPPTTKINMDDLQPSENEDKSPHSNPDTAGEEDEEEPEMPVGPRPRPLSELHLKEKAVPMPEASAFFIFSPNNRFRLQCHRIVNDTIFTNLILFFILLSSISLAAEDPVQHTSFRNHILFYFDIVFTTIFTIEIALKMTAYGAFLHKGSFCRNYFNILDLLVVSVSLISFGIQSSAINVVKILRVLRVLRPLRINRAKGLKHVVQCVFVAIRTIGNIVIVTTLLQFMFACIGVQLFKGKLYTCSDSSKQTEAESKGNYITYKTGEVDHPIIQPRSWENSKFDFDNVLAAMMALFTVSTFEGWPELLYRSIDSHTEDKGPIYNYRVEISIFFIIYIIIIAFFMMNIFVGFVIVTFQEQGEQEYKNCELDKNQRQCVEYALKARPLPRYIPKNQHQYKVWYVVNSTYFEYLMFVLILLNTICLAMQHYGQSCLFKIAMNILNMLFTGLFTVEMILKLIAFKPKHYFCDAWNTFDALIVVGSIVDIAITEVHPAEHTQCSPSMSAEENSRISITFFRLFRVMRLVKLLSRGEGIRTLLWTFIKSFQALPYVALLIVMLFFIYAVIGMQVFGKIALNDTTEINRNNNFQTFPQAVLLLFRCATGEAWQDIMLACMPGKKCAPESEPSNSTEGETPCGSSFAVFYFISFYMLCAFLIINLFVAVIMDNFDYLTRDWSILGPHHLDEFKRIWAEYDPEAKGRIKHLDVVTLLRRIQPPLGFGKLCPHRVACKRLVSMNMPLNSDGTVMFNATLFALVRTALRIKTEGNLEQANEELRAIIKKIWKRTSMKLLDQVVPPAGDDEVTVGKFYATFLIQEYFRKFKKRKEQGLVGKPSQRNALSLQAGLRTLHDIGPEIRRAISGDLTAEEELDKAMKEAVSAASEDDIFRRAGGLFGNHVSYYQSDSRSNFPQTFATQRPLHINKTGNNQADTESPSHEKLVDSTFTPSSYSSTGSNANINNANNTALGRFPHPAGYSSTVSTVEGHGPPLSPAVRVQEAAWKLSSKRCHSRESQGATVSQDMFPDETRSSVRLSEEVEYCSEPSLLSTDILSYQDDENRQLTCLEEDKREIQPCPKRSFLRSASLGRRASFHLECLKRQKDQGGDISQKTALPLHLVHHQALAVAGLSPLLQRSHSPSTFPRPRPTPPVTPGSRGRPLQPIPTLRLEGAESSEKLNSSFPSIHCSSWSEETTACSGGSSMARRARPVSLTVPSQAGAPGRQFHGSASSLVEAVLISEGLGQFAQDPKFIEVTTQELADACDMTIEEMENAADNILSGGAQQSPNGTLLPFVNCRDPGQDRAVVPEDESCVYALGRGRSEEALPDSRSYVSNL
T3 sequence (P14867 whole entry): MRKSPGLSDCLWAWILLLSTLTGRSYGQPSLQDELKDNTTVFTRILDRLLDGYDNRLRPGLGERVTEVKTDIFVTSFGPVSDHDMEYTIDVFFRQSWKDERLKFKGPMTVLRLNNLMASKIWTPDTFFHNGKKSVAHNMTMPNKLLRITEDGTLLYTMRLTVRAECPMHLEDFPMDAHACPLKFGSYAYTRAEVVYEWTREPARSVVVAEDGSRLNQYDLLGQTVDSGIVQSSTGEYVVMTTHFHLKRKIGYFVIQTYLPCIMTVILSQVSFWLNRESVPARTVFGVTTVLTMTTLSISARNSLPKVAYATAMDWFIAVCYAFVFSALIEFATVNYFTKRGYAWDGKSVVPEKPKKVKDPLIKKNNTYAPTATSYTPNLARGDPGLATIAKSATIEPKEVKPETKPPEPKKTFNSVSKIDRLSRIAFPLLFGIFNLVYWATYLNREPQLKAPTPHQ
T3 sequence (P47870 whole entry): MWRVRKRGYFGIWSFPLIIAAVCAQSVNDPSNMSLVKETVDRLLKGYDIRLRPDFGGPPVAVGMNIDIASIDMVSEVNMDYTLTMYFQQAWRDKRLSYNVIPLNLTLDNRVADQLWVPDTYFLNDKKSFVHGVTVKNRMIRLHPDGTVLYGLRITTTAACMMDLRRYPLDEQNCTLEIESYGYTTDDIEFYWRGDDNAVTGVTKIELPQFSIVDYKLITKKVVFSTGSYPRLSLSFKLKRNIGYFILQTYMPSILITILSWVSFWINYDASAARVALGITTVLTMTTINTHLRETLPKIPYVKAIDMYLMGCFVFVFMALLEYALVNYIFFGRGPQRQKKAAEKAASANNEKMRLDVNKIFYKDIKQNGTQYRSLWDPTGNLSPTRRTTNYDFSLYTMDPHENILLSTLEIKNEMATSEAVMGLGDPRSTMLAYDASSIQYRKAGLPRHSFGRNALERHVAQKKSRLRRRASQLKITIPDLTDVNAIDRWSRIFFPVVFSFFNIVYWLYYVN
T3 sequence (P18507 whole entry): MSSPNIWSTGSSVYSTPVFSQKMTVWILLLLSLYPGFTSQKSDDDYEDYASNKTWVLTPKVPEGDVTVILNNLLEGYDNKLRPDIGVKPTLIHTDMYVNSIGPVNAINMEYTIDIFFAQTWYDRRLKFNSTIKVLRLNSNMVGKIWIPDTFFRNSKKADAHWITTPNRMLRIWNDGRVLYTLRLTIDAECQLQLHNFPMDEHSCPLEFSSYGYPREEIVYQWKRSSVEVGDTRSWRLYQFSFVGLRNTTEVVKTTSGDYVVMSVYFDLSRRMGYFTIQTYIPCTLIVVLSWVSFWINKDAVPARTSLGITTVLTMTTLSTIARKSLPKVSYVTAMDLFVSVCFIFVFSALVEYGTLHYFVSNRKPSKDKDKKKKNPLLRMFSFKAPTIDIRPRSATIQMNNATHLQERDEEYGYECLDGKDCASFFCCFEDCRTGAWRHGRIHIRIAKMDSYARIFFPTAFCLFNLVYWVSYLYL
T3 sequence (P47869 whole entry): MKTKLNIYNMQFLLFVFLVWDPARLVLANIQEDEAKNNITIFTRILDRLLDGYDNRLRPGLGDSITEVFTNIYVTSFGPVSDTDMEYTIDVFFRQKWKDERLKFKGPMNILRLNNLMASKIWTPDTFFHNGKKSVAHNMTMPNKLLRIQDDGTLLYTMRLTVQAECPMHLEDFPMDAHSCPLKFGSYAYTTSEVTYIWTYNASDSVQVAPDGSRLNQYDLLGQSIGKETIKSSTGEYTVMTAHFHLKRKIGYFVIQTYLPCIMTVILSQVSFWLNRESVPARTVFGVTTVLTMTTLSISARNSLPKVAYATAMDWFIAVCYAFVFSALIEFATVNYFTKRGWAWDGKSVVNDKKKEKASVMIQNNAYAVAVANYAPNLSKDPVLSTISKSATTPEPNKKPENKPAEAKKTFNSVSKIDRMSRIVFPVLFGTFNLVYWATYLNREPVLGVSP
Chain of Neurotensin receptor type 1 (P30989 whole entry): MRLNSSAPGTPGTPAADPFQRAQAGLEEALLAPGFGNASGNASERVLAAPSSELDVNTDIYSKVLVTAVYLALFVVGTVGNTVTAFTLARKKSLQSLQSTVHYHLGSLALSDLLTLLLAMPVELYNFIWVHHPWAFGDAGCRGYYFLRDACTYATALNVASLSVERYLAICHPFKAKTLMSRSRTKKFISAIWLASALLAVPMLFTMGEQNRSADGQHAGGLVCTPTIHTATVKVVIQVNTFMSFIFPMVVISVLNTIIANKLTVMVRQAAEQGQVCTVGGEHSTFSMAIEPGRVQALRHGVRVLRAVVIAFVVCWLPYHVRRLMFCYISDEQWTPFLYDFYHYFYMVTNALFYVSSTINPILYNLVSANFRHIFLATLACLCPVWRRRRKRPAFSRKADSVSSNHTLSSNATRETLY
Chain of Beta-3 adrenergic receptor (P13945 whole entry): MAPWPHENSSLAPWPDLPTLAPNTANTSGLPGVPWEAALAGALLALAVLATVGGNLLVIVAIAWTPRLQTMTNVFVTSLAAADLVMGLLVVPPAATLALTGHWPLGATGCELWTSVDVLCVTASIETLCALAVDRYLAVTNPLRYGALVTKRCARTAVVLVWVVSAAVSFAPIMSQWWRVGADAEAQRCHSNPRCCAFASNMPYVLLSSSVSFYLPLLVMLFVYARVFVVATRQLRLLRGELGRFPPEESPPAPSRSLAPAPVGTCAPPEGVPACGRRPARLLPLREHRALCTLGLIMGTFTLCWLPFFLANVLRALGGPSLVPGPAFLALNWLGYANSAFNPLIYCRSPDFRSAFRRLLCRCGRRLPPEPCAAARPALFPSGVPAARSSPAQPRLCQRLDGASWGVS

Row | Compound | AC50 [1] [µM] | AC50 [2] [µM] | AC50 [3] [µM] | AC50 (Histamine H1 receptor) [µM] | AC50 (Glucocorticoid receptor) [µM] | AC50 (Mu-type opioid receptor) [µM] | AC50 [4] [µM] | AC50 [5] [µM] | AC50 [6] [µM] | AC50 [7] [µM] | AC50 [8] [µM] | AC50 [9] [µM] | AC50 [10] [µM]
1 | CC(=O)Nc1ccc(CC(=O)O)cc1 [ACTARIT] | > 30 | > 30 | > 30 | > 30 | > 30 | > 30 |  |  |  |  |  |  | 
2 | CC(C(=O)O)c1ccc2oc(-c3ccc(Cl)cc3)nc2c1 (stereo not given) [BENOXAPROFEN] | > 30 |  |  |  | > 30 | > 30 |  |  |  |  |  |  | 
3 | CC=CC1=C(C(=O)O)N2C(=O)[C@@H](NC(=O)[C@H](N)c3ccc(O)cc3)[C@H]2SC1 [CEFPROZIL] | > 30 | > 30 | > 30 | > 30 | > 30 | > 30 |  |  |  |  |  |  | 
4 | CC(C)NC(=N)NC(=N)Nc1ccc(Cl)c(Cl)c1 [CHLORPROGUANIL] |  | > 30 | > 30 | > 30 |  | > 30 | > 30 | > 30 |  |  |  |  | 
5 | CCCNC(=O)NS(=O)(=O)c1ccc(Cl)cc1 [CHLORPROPAMIDE] | > 10 |  |  |  | > 30 |  |  |  | > 30 | > 10 | > 30 | > 30 | 
6 | C[N+](C)(C)CCOP(=O)(O)OP(=O)([O-])OC[C@H]1O[C@@H](n2ccc(N)nc2=O)[C@H](O)[C@@H]1O [CITICOLINE] |  | > 10 | > 30 | > 30 |  | > 30 | > 30 | > 30 |  |  |  |  | 
7 | CCC(=O)O[C@]1(C(=O)CCl)[C@@H](C)C[C@H]2[C@@H]3CCC4=CC(=O)C=C[C@]4(C)[C@@]3(F)[C@@H](O)C[C@@]21C [CLOBETASOL PROPIONATE] |  |  |  |  | 0.0078 | > 30 | > 30 |  |  |  |  |  | > 30
8 | Cc1nc(Nc2ncc(C(=O)Nc3c(C)cccc3Cl)s2)cc(N2CCN(CCO)CC2)n1 [DASATINIB] | > 10 | > 30 | > 30 | > 30 |  |  |  |  |  | > 10 |  |  | 
9 | CC(C)Cc1ccc([C@H](C)C(=O)O)cc1 [DEXIBUPROFEN] |  |  |  |  |  |  | > 30 | > 30 |  |  |  |  | 
10 | O=C(O)Cc1ccccc1Nc1c(Cl)cccc1Cl [DICLOFENAC] | > 10 |  |  |  |  |  |  |  | > 30 | > 10 | > 30 | > 30 | 
11 | CNC[C@H](O)c1ccc(O)c(O)c1 [EPINEPHRINE] |  |  |  |  |  |  | > 30 |  |  |  |  |  | > 30
12 | O=C(O)Cc1ccccc1Oc1ccc(Cl)cc1Cl [FENCLOFENAC] | > 10 | > 10 | > 10 | > 10 | > 30 |  |  |  | > 30 | > 10 | > 30 | > 30 | 
13 | Cc1ccc(C)c(OCCCC(C)(C)C(=O)O)c1 [GEMFIBROZIL] | > 10 |  |  |  |  |  |  |  | > 30 | > 10 | > 30 | > 30 | 
14 | COc1ccccc1OC1(C)OC(=O)c2ccccc2O1 (stereo not given) [GUAIMESAL] |  |  |  |  | > 30 |  |  |  |  |  |  |  | 
15 | CCCCCCCN(CC)CCCC(O)c1ccc(NS(C)(=O)=O)cc1 (stereo not given) [IBUTILIDE] | > 30 | > 30 | 21 | > 30 | > 30 | > 30 |  |  |  |  |  |  | 
16 | CC[C@H](C)C(=O)O[C@H]1C[C@@H](C)C=C2C=C[C@H](C)[C@H](CC[C@@H]3C[C@@H](O)CC(=O)O3)[C@H]21 [LOVASTATIN] | > 10 |  |  |  | > 30 |  |  |  | 11.6 | > 10 | > 30 | > 30 | 
17 | CC[C@@H](CO)NC(=O)[C@@H]1C=C2c3cccc4c3c(cn4C)C[C@H]2N(C)C1 [METHYSERGIDE] | > 10 |  |  |  |  |  |  |  | > 30 | > 10 | > 30 | > 30 | 
18 | CNC(=C[N+](=O)[O-])NCCSCc1csc(CN(C)C)n1 [NIZATIDINE] | > 10 |  |  |  | > 10 | > 30 |  |  |  |  |  |  | 
19 | CN1Cc2c(N)cccc2C(c2ccccc2)C1 (stereo not given) [NOMIFENSINE] |  | > 30 | > 30 | 30 | > 30 | 1.4 | > 30 | > 30 |  |  |  |  | 
20 | CC(CN1c2ccccc2Sc2ccccc21)N(C)C (stereo not given) [PROMETHAZINE] | > 10 |  |  |  |  |  |  |  | > 30 | > 10 | > 30 | > 30 | 
21 | CCCc1cc(=O)[nH]c(=S)[nH]1 [PROPYLTHIOURACIL] | > 10 |  |  |  |  |  |  |  |  |  |  |  | 
22 | Cn1cc(C(=O)[C@@H]2CCc3nc[nH]c3C2)c2ccccc21 [RAMOSETRON] | > 30 | > 30 | > 30 | > 30 | > 30 | > 30 |  |  |  |  |  |  | 
23 | CN(CCOc1ccc(CC2SC(=O)NC2=O)cc1)c1ccccn1 (stereo not given) [ROSIGLITAZONE] | > 30 |  |  |  |  | > 30 |  |  | > 30 | > 10 | > 30 | > 30 | 
24 | S=P(N1CC1)(N1CC1)N1CC1 [THIOTEPA] |  |  | 9.3 |  |  |  | > 30 | > 30 |  |  |  |  | > 30
25 | C[C@]12C=CC(=O)C=C1CC[C@H]1[C@@H]3C[C@@H](O)[C@](O)(C(=O)CO)[C@@]3(C)C[C@H](O)[C@@]12F [TRIAMCINOLONE] |  |  |  |  | 0.0091 |  |  |  |  |  |  |  | 
26 | CC(C)C[C@H](NC(=O)[C@@H](O)[C@H](N)Cc1ccccc1)C(=O)O [UBENIMEX] | > 30 |  |  |  | 20 | > 30 |  |  |  |  |  |  | 
27 | CC(C)[C@H](N)C(=O)OCCOCn1cnc2c(=O)[nH]c(N)nc21 [VALACYCLOVIR] | > 10 |  |  |  | > 30 |  |  |  | > 30 | > 10 | > 30 | > 30 | 
28 | COc1cc(C(=O)NS(=O)(=O)c2ccccc2C)ccc1Cc1cn(C)c2ccc(NC(=O)OC3CCCC3)cc12 [ZAFIRLUKAST] | > 10 |  |  |  | 24.9 |  |  |  |  |  |  |  | 
29 | O=C1Cc2cc(CCN3CCN(c4nsc5ccccc45)CC3)c(Cl)cc2N1 [ZIPRASIDONE] | > 10 | > 10 | > 10 |  | > 30 |  |  |  | > 30 | > 10 | > 30 | > 30 | 

Reference: ChEMBL document CHEMBL5291721, “A preclinical secondary pharmacology resource illuminates target-adverse drug reaction associations of marketed drugs” (Nat Commun, 2023)
